# Measurements taken from ChEMBL document CHEMBL1201862, “PubChem BioAssay data set” (2004).
#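 96-well plates; 48 h exposure; 5 concentrations. Endpoints by linear interpolation between flanking doses. Not reached: highest tested concentration assigned. The concentration for 50% growth inhibition is given as GI50.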 The source made the active and inactive calls. No stated cut-off is given here; in the data, active = GI50 up to about 1.1 µM and inactive = higher.
# Columns and labels:
# Assay in all cases: growth of human tumour cells (NCI), 48 h
# [1] = system: 786-0
# [2] = system: HCT-116
# [3] = system: HCT-15
# [4] = system: HOP-62
# [5] = system: IGROV-1
# [6] = system: K562
# [7] = system: MCF7
# [8] = system: MDA-MB-435
# [9] = system: NCI-H226
# [10] = system: NCI-H460
# [11] = system: NCI/ADR-RES
# [12] = system: OVCAR-3
# [13] = system: OVCAR-5
# [14] = system: SK-MEL-28
# [15] = system: SK-MEL-2
# [16] = system: SNB-19
# [17] = system: UACC-257
# [18] = system: MDA-N
# [19] = system: A498
SMILES,GI50 [1],GI50 [2],GI50 [3],GI50 [4],GI50 [5],GI50 [6],GI50 [7],GI50 [8],GI50 [9],GI50 [10],GI50 [11],GI50 [12],GI50 [13],GI50 [14],GI50 [15],GI50 [16],GI50 [17],GI50 [18],GI50 [19]
O=Cc1ccccc1B(O)O,43.4 µM (inactive),43.2 µM (inactive),62.7 µM,> 100 µM (inactive),29.6 µM (inactive),23.1 µM (inactive),29.4 µM (inactive),99.1 µM (inactive),> 100 µM (inactive),> 100 µM (inactive),52 µM (inactive),33.6 µM (inactive),87.5 µM (inactive),68.4 µM (inactive),> 100 µM (inactive),> 100 µM (inactive),25.8 µM (inactive),,
Cc1ccc(C2CC(=O)CC(c3ccc(C)cc3)C23C(=O)NC(=O)NC3=O)cc1 (stereo unspecified),> 100 µM (inactive),> 100 µM (inactive),> 100 µM,28.9 µM (inactive),> 100 µM (inactive),40.4 µM (inactive),> 100 µM (inactive),> 100 µM (inactive),> 100 µM (inactive),> 100 µM (inactive),> 100 µM (inactive),> 100 µM (inactive),> 100 µM (inactive),> 100 µM (inactive),> 100 µM (inactive),> 100 µM (inactive),> 100 µM (inactive),> 100 µM (inactive),
O=C1OC[C@@H]2Cc3cc4c(cc3[C@H](c3ccc5c(c3)OCO5)[C@@H]12)OCO4,> 25 µM (inactive),18.2 µM (inactive),11 µM,24.7 µM (inactive),,12 µM (inactive),24.2 µM (inactive),13.3 µM (inactive),,> 25 µM (inactive),9.33 µM (inactive),> 25 µM (inactive),> 25 µM (inactive),> 25 µM (inactive),> 25 µM (inactive),> 25 µM (inactive),> 25 µM (inactive),12 µM (inactive),
N#CCCC1(CCC#N)S(=O)(=O)OCCOS1(=O)=O,21.6 µM (inactive),40.9 µM (inactive),36.8 µM,< 0.01 µM (active),,,34.2 µM (inactive),47.6 µM (inactive),41.5 µM (inactive),,19.2 µM (inactive),32.1 µM (inactive),> 100 µM (inactive),50 µM (inactive),42.2 µM (inactive),48.8 µM (inactive),> 100 µM (inactive),54.3 µM (inactive),
COC(=O)Cc1cc2c(cc1C(=O)c1ccc(N)cc1)OCO2,5.58 µM (inactive),1.77 µM (inactive),1.1 µM,3.84 µM (inactive),0.625 µM (active),0.553 µM (active),0.902 µM (active),0.169 µM (active),22.2 µM (inactive),12.2 µM (inactive),0.667 µM (active),0.755 µM (active),6.46 µM (inactive),3.36 µM (inactive),0.964 µM (active),8.83 µM (inactive),,0.19 µM (active),
N#Cc1c(N)oc(-c2cccc([N+](=O)[O-])c2)c1C#N,27.7 µM (inactive),33.7 µM (inactive),16.1 µM,> 10 µM (inactive),23.6 µM (inactive),,53.3 µM (inactive),31.2 µM (inactive),43.2 µM (inactive),,30.5 µM (inactive),,82.4 µM (inactive),19.5 µM (inactive),44.5 µM (inactive),31.6 µM (inactive),21.8 µM (inactive),,21 µM (inactive)
CCCCCCCCNC(=O)C1=C(C)NC(C)=C(C(=O)NCCCCCCCC)C1,> 100 µM (inactive),> 100 µM (inactive),> 100 µM,> 100 µM (inactive),> 100 µM (inactive),> 100 µM (inactive),> 100 µM (inactive),44.8 µM (inactive),> 100 µM (inactive),> 100 µM (inactive),> 100 µM (inactive),> 100 µM (inactive),> 100 µM (inactive),,> 100 µM (inactive),> 100 µM (inactive),> 100 µM (inactive),89.5 µM (inactive),
COc1cc(OC)cc(-n2c(N)c(C#N)c3ccc([N+](=O)[O-])cc3c2=O)c1,19 µM (inactive),93.5 µM (inactive),> 100 µM,,,22.6 µM (inactive),,63.2 µM (inactive),23.9 µM (inactive),30.8 µM (inactive),41.8 µM (inactive),,,43.1 µM (inactive),41.2 µM (inactive),17.5 µM (inactive),35 µM (inactive),80 µM (inactive),20 µM (inactive)
CN(C)CCNC(=O)c1cccc2c(NC(CS)C(=O)O)c3ccccc3[n+](C)c12 (stereo unspecified),69.2 µM (inactive),41.1 µM (inactive),> 100 µM,60.8 µM (inactive),43.8 µM (inactive),87.9 µM (inactive),95.5 µM (inactive),68.5 µM (inactive),,45.5 µM (inactive),33.8 µM (inactive),81.3 µM (inactive),> 100 µM (inactive),> 100 µM (inactive),> 100 µM (inactive),84.7 µM (inactive),60.3 µM (inactive),,77.4 µM (inactive)
O=C(O)CCSC(=O)Nc1ccccc1F,> 100 µM (inactive),> 100 µM (inactive),> 100 µM,> 100 µM (inactive),,> 100 µM (inactive),,,> 100 µM (inactive),> 100 µM (inactive),,> 100 µM (inactive),> 100 µM (inactive),> 100 µM (inactive),> 100 µM (inactive),> 100 µM (inactive),,,> 100 µM (inactive)
SC1=NC2=C(CSC/C2=C\c2ccc(Cl)cc2)C(c2ccc(Cl)cc2)N1 (stereo unspecified),26.5 µM (inactive),27.5 µM (inactive),34 µM,36 µM (inactive),51.8 µM (inactive),28.6 µM (inactive),30.8 µM (inactive),,,31.4 µM (inactive),38.1 µM (inactive),41.2 µM (inactive),72.4 µM (inactive),> 100 µM (inactive),34.2 µM (inactive),44.3 µM (inactive),32 µM (inactive),33.5 µM (inactive),
CC1CCc2sc3nc4n(c(=O)c3c2C1)CC(C)S4 (stereo unspecified),23.1 µM (inactive),23.3 µM (inactive),25.6 µM,32.7 µM (inactive),34.2 µM (inactive),24.7 µM (inactive),24 µM (inactive),34.4 µM (inactive),21.8 µM (inactive),22.5 µM (inactive),30.8 µM (inactive),7.6 µM (inactive),27 µM (inactive),25.9 µM (inactive),19.5 µM (inactive),27.7 µM (inactive),20.2 µM (inactive),28.4 µM (inactive),
CON(C(=O)OC(C)(C)C)c1ccccc1,> 100 µM (inactive),> 100 µM (inactive),> 100 µM,> 100 µM (inactive),> 100 µM (inactive),> 100 µM (inactive),,> 100 µM (inactive),> 100 µM (inactive),> 100 µM (inactive),> 100 µM (inactive),> 100 µM (inactive),> 100 µM (inactive),> 100 µM (inactive),> 100 µM (inactive),> 100 µM (inactive),> 100 µM (inactive),,> 100 µM (inactive)
CN1c2ccccc2C(=O)NC12CCNCC2,> 100 µM (inactive),> 100 µM (inactive),,> 100 µM (inactive),> 100 µM (inactive),> 100 µM (inactive),> 100 µM (inactive),> 100 µM (inactive),> 100 µM (inactive),> 100 µM (inactive),> 100 µM (inactive),,> 100 µM (inactive),> 100 µM (inactive),,> 100 µM (inactive),> 100 µM (inactive),,> 100 µM (inactive)
OCCOCCN1CCN(CCCN2c3ccccc3Sc3ccc(C(F)(F)F)cc32)CC1,16.6 µM (inactive),7.91 µM (inactive),21.6 µM,17.6 µM (inactive),9.84 µM (inactive),2.79 µM (inactive),13.1 µM (inactive),11.1 µM (inactive),16.4 µM (inactive),9.95 µM (inactive),,17.7 µM (inactive),14.3 µM (inactive),3.27 µM (inactive),19.4 µM (inactive),14.4 µM (inactive),5.15 µM (inactive),13 µM (inactive),10.5 µM (inactive)
CCCCNC(=S)Nc1nc(C(=O)NNS(=O)(=O)c2ccccc2)cs1,> 100 µM (inactive),26.2 µM (inactive),36.2 µM,36.4 µM (inactive),24.9 µM (inactive),49.1 µM (inactive),42 µM (inactive),21.4 µM (inactive),> 10 µM (inactive),,60.3 µM (inactive),24.2 µM (inactive),42 µM (inactive),,22.6 µM (inactive),,22.9 µM (inactive),,45.2 µM (inactive)
CCOC(=O)/C(=C\NC(C)(C)CO)c1nc2ccccc2[nH]1,> 100 µM (inactive),> 100 µM (inactive),81.7 µM,> 100 µM (inactive),41.5 µM (inactive),75 µM (inactive),86.3 µM (inactive),> 100 µM (inactive),,36.1 µM (inactive),79.6 µM (inactive),> 100 µM (inactive),> 100 µM (inactive),77.8 µM (inactive),,> 100 µM (inactive),> 100 µM (inactive),> 100 µM (inactive),54.6 µM (inactive)
C=C(C)C12OC1[C@@]1(C)C(=CC2=O)CCC(O)[C@@H]1C (stereo partly specified),1.64 µM (inactive),1.15 µM (inactive),1.92 µM,1.4 µM (inactive),0.891 µM (active),,3.53 µM (inactive),3.29 µM (inactive),,0.743 µM (active),,3.68 µM (inactive),8.51 µM (inactive),3.89 µM (inactive),2.34 µM (inactive),1.69 µM (inactive),3.34 µM (inactive),2.68 µM (inactive),5.19 µM (inactive)
